Where two headings read alike, the source gives them in different places.
Legend:
[1] = target: wild type MLL1 five-member complex (MLL1-5C) (Homo sapiens, UniProt Q03164); test: MLL1 Flashplate Assay; assay type: biochemical; details: read-out: MLL1 flash plate
Protocol: MLL1 Flashplate Assay To assess the compound potency in MLL1 Flashplate assay, compounds were serially diluted 3-fold in DMSO to obtain a total of twelve concentrations. Then the test compounds at each concentration (250 nL of each) were transferred by Mosquito into Corning #3675 384-well plate. Solutions (15 μL) of 4.2 nM wild type MLL1 five-member complex (MLL1-5C) in the assay buffer (20 mM Tris-HCl, pH 8.0, 0.01% Tween 20, 1 mM DTT, 0.01% BSA) were added to the wells. A 10 μL solution of 2.5 μM of the peptide substrate H3K4me0 (histone H3[1-21]-Biotin) and 1.25 μM ^3H-SAM in the reaction buffer was then added to initiate each reaction. The final components in the reaction solution include 2.5 nM MLL1-5C, 0.5 μM ^3H-SAM, and 1 μM H3K4me0 with varying concentration of the compounds. A positive control consisted of 2.5 nM MLL1-5C, 0.5 μM ^3H-SAM, and 1 μM substrate in the absence of the test compound, and a negative control consisted of 0.5 μM ^3H-SAM, and 1 μM substrate only. Each reaction was incubated at rt for 90 min, then stopped by addition of 5 μL per of quench solution (0.5 mM SAM in assay buffer). 25 μL of each reaction solution was transferred to FlashPlate streptavidin 384-well microplate (PerkinElmer). After at least 1 h incubation at rt, the wells were washed three times with 0.1% Tween-20 in dH2O using the BioTek plate washer. The plates were then read in MicroBeta (PerkinElmer). The radioactive readouts were then normalized based on the values coming from the positive and negative controls to give percent enzyme activities. The data were then fit to a dose response equation using the program Helios to get the IC50 values of the test compounds.

[2] = tested on: MV4-11 cells; test: MV4-11 6-Day Cell Growth CTG (CellTiter-Glo) Assay; assay type: cell-based; details: MV4-11 cell growth CellTiter-Glo, 6 days
Method in brief: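 MV4-11 AML cells (RPMI 1640, 10% FBS) seeded at 300 cells/well and exposed for 6 days at 37 °C to a 12-point, 1:3 compound series starting at 50 μM final. Viable cells read by CellTiter-Glo luminescence; percent inhibition versus DMSO-only wells fitted to dose-response curves for IC50.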

[3] = target: wild type MLL1 four-member complex (MLL1-4C) (Homo sapiens, UniProt Q03164); test: MLL1 LC-MS Assay; assay type: biochemical
Method in brief: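 Compound pre-incubated 20 min with MLL1-4C and SAM, then H3[1-21]-biotin (H3K4me0) substrate added; final 30 nM enzyme, 2.5 μM SAM, 10 μM peptide in Tris pH 8.0 with MgCl2, DTT, Tween 20, BSA. After 120 min at rt, TFA-quenched SAH quantified by LC-MS/MS with d4-SAH; IC50 from dose-response fit.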

[4] = tested on: H3K4me3 in MV4-11 cells; test: MV4-11 H3K4me3 Cellular ELISA Assay; assay type: cell-based
Method in brief: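 MV4-11 cells were treated for 48 h with 12-point 1:3 compound dilutions (from 10 mM stock), then histones were acid-extracted with 0.5M HCl and neutralized. H3K4me3 and total H3 were measured by HRP chemiluminescent ELISA, and inhibition versus DMSO after H3 normalization was curve-fitted for IC50.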

Structure (SMILES)	IC50 [1]	IC50 ([2]; Homo sapiens, MV4-11, 144 h)	IC50 ([3]; read-out: LCMS)	IC50 ([4]; Homo sapiens, MV4-11, 48 h)	IC50 ([3]; read-out: MLL1 LCMS)	IC50 [2]	IC50 ([4]; 48 hours)
Nc1ncnc2c1ncn2Cc1c(-c2cccc(C3CCCCC3)c2)cc(Cl)cc1N1CC[C@](N)(c2nn[nH]n2)C1 [Example 84]	< 60 nM	< 2000 nM	50 to 100 nM	< 1900 nM			
COC[C@@]1(N)CCN(c2cc(Cl)cc(Br)c2Cn2cnc3c(N)ncnc32)C1 [Example 32, (R)-9-(2-(3-amino-3-(methoxymethyl)pyrrolidin-1-yl)-6-bromo-4-chlorobenzyl)-9H-purin-6-amine]	60 to 100 nM	> 3000 nM	> 100 nM	> 3000 nM			
CCc1cc(-c2cccs2)cc(N2CC[C@](N)(C(=O)NC3CC3)C2)c1Cn1cnc2c(N)ncnc21 [Example 93]	< 60 nM	< 2000 nM	< 50 nM	< 1900 nM			
Cn1nnnc1[C@@]1(N)CCN(c2cc(Cl)cc(Br)c2Cn2cnc3c(N)ncnc32)C1 [Example 90, (R)-9-(2-(3-amino-3-(1-methyl-1H-tetrazol-5-yl)pyrrolidin-1-yl)-6-bromo-4-chlorobenzyl)-9H-purin-6-amine]	> 100 nM		< 50 nM	> 3000 nM			
Nc1ncnc2c1ncn2Cc1c(Br)cc(Cl)c(Cl)c1N1CC[C@](N)(C(=O)NC2CC2)C1 [Example 43]	< 60 nM	> 3000 nM	50 to 100 nM	> 3000 nM			
Nc1ncnc2c1ncn2Cc1c(-c2cccc3c2CCCC3)cc(Cl)cc1N1CC[C@](N)(C(=O)NC2CC2)C1 [Example 150]	< 60 nM	< 2000 nM		1900 to 3000 nM	< 50 nM		
Nc1nccc(CNC(=O)[C@@]2(N)CCN(c3ccc(F)c(C(F)(F)F)c3Cn3cnc4c(N)ncnc43)C2)n1 [Example 133]	60 to 100 nM	< 2000 nM	50 to 100 nM	< 1900 nM			
CCc1cc(-c2ccccn2)cc(N2CC[C@](N)(C(=O)NC3CC3)C2)c1Cn1cnc2c(N)ncnc21 [Example 99, (R)-3-amino-1-(2-((6-amino-9H-purin-9-yl)methyl)-3-ethyl-5-(pyridin-2-yl)phenyl)-N-cyclopropylpyrrolidine-3-carboxamide]	< 60 nM	< 2000 nM	< 50 nM	< 1900 nM			
CN(C)Cc1c(Cl)c(Cl)cc(N2CC[C@](N)(C(=O)NC3CC3)C2)c1Cn1cnc2c(N)ncnc21 [Example 88, (R)-3-amino-1-(2-((6-amino-9H-purin-9-yl)methyl)-4,5-dichloro-3-((dimethylamino)methyl)phenyl)-N-cyclopropylpyrrolidine-3-carboxamide]	< 60 nM	< 2000 nM	< 50 nM	< 1900 nM			
Nc1ncnc2c1ncn2Cc1c(N2CC[C@@](N)(CO)C2)ccc2ccccc12 [Example 106]	< 60 nM	< 2000 nM	< 50 nM	< 1900 nM			
Nc1ncnc2c1ncn2Cc1c(N2CC[C@](N)(c3nc[nH]n3)C2)ccc(Cl)c1Cl [Example 85]	< 60 nM	< 2000 nM	< 50 nM	< 1900 nM			
Nc1ncnc2c1ncn2Cc1c(Br)cc(Cl)cc1N1CC[C@](N)(CO)C1 (stereo in doubt) [Example 107]	> 100 nM		> 100 nM			< 2000 nM	> 3000 nM
Nc1ncnc2c1ncn2Cc1c(Br)c(Cl)cc(Cl)c1N1CC[C@](N)(C(=O)NC2CC2)C1 [Example 143]	< 60 nM	< 2000 nM		< 1900 nM	< 50 nM		
CCc1ccc(Cl)c(N2CC[C@](N)(C(=O)NC3CC3)C2)c1Cn1cnc2c(N)ncnc21 [Example 154]	> 100 nM	< 2000 nM		< 1900 nM	< 50 nM		
C[C@@H]1CN(C(=O)[C@@]2(N)CCN(c3ccc(F)c(C(F)(F)F)c3Cn3cnc4c(N)ncnc43)C2)CCO1 [Example 135]	< 60 nM	< 2000 nM	50 to 100 nM	< 1900 nM			
C[C@H]1CN(C(=O)[C@@]2(N)CCN(c3ccc(F)c(C(F)(F)F)c3Cn3cnc4c(N)ncnc43)C2)CCO1 [Example 131]	< 60 nM	< 2000 nM	50 to 100 nM	< 1900 nM			
